Reference: the NIST ThermoML archive (doi:10.1021/je800664z)

Experiment: refractive index (Na D-line) (dimensionless); xn = mol fraction of the nth substance listed
Details: 101 kPa, Liquid, Standard Abbe refractometry

C1COCO1 [1,3-dioxolane] + CC(C)CC(C)(C)C
refractive index
Details	288.15 K	298.15 K	308.15 K
x1 = 0.0501	1.39395	1.38898	1.38381
x1 = 0.1	1.39385	1.38885	1.38367
x1 = 0.15	1.39377	1.38876	1.38361
x1 = 0.2	1.39374	1.38876	1.3836
x1 = 0.25	1.39378	1.38883	1.3837
x1 = 0.3	1.39389	1.38897	1.38387
x1 = 0.35	1.39411	1.3892	1.3841
x1 = 0.4	1.3944	1.38948	1.3844
x1 = 0.45	1.39473	1.38982	1.38476
x1 = 0.5	1.39512	1.39022	1.38517
x1 = 0.55	1.39558	1.39068	1.38563
x1 = 0.6	1.3961	1.3912	1.38614
x1 = 0.65	1.39668	1.39178	1.38672
x1 = 0.7	1.39734	1.39243	1.38739
x1 = 0.75	1.39807	1.39318	1.38814
x1 = 0.8	1.39883	1.39399	1.38895
x1 = 0.85	1.39966	1.39487	1.38987
x1 = 0.9	1.40055	1.39581	1.3909
x1 = 0.95	1.40152	1.39683	1.39199
x1 = 1	1.40252	1.39795	1.39322
